Data as given in patent US20230159496A1, “COMPOUNDS AND METHODS FOR MODULATING SPLICING” (REMIX THERAPEUTICS INC., priority 2020, published 2023).
Counter-ions that a name gives are not always drawn. Like-named read-outs stand apart in the source and are kept apart here.

What was measured:
Assay type in all cases: cell-based
[1] = tested on: HTT mRNA; experiment: Splicing assay (RT-qPCR) monitoring HTT canonical junction (CJ) and alternative junction (AJ) mRNA isoforms; conditions: A673 or K562 cells, 24 h treatment, top dose 10 uM
Method: Compounds described herein were used to modulate RNA transcript abundance in cells. The expression of a target mRNA was measured by detecting the formation of an exon-exon junction in the canonical transcript (CJ). A compound mediated exon-inclusion event was detected by observing an increase in formation of a new junction with an alternative exon (AJ). Real-time qPCR assays were used to detect these splicing switches and interrogate the potency of various compounds towards different target genes. A high-throughput real time quantitative PCR (RT-qPCR) assay was developed to measure these two isoforms of the mRNA (CJ and AJ) for an exemplary gene, HTT, together with a control housekeeping gene, GAPDH or GUSB or PPIA, used for normalization. Briefly, the A673 or K562 cell line was treated with various compounds described herein (e.g., compounds of Formula (I)). After treatment, the levels of the HTT mRNA targets were determined from each sample of cell lysate by cDNA synthesis followed by qPCR.
• Cells-to-CT 1-step kit: ThermoFisher A25602, Cells-to-CT lysis reagent: ThermoFisher 4391851C, TaqMan™ Fast Virus 1-Step Master Mix: ThermoFisher 4444436 • GAPDH: VIC-PL, ThermoFisher 4326317E (Assay: Hs99999905_m1)—used for K562/suspension cell lines • GUSB: VIC-PL, ThermoFisher 4326320E (Assay: Hs99999908_m1)—used for K562/suspension cell lines • PPIA: VIC-PL, ThermoFisher 4326316E (Assay: Hs99999904_m1) — used for A673/adherent cell lines
The A673 cell line was cultured in DMEM with 10% FBS. Cells were diluted with full growth media and plated in a 96-well plate (15,000 cells in 100 ul media per well). The plate was incubated at 37° C. with 5% CO2 for 24 hours to allow cells to adhere. An 11-point 3-fold serial dilution of the compounds was made in DMSO then diluted in media in an intermediate plate. Compounds were transferred from the intermediate plate to the cell plate with the top dose at a final concentration of 10 uM in the well. Final DMSO concentration was kept at or below 0.25%. The cell plate was returned to the incubator at 37° C. with 5% CO2 for an additional 24 hours.
The K562 cell line was cultured in IMDM with 10% FBS. For K562, cells were diluted with full growth media and plated in either a 96-well plate (50,000 cells in 50 uL media per well) or a 384-well plate (8,000-40,000 cells in 45 uL media per well). An 11-point 3-fold serial dilution of the compounds were made in DMSO then diluted in media in an intermediate plate. Compound was transferred from the intermediate plate to the cell plate with the top dose at a final concentration of 10 uM in the well. Final DMSO concentration was kept at or below 0.25%. Final volume was 100 uL for 96-well plate and 50 uL for 384-well plate. The cell plate was then placed in an incubator at 37° C. with 5% CO2 for 24 hours.
The cells were then gently washed with 50 uL-100 uL cold PBS before proceeding to addition of lysis buffer. 30 uL-50 uL of room temperature lysis buffer with DNAse I (and optionally RNAsin) was added to each well. Cells were shaken/mixed thoroughly at room temperature for 5-10 minutes for lysis to take place and then 3 uL-5 uL of room temperature stop solution was added and wells were shaken/mixed again. After 2-5 minutes, the cell lysate plate was transferred to ice for RT-qPCR reaction setup. The lysates could also be frozen at −80° C. for later use.
In some cases, a direct lysis buffer was used. An appropriate volume of 3× lysis buffer (10 mM Tris, 150 mM NaCl, 1.5%-2.5% Igepal and 0.1-1 U/uL RNAsin, pH 7.4) was directly added to either K562 or A673 cells in media and mixed by pipetting 3 times. The plates were then incubated at room temperature with shaking/rocking for 20-50 minutes to allow for lysis to take place. After this time, the cell lysate plate was transferred to ice to set up for the RT-qPCR reactions. The lysates could also be frozen at −80° C. for later use. […]

[2] = tested on: HTT CJ mRNA; experiment: Gene panel canonical junction qPCR assay, HTT; conditions: decrease in CJ mRNA levels, gene panel; read-out: HTT IC50
Method: (§1) The expression of a target mRNA was measured by detecting the formation of an exon-exon junction in the canonical transcript (CJ). A compound mediated exon-inclusion event was detected by observing an increase in formation of a new junction with an alternative exon (AJ). Real-time qPCR assays were used to detect these splicing switches and interrogate the potency of various compounds towards different target genes. A high-throughput real time quantitative PCR (RT-qPCR) assay was developed to measure these two isoforms of the mRNA (CJ and AJ) for an exemplary gene, HTT, together with a control housekeeping gene, GAPDH or GUSB or PPIA, used for normalization. Briefly, the A673 or K562 cell line was treated with various compounds described herein (e.g., compounds of Formula (I)). After treatment, the levels of the HTT mRNA targets were determined from each sample of cell lysate by cDNA synthesis followed by qPCR. The A673 cell line was cultured in DMEM with 10% FBS. Cells were diluted with full growth media and plated in a 96-well plate (15,000 cells in 100 ul media per well). The plate was incubated at 37° C. with 5% CO2 for 24 hours to allow cells to adhere. An 11-point 3-fold serial dilution of the compounds was made in DMSO then diluted in media in an intermediate plate. Compounds were transferred from the intermediate plate to the cell plate with the top dose at a final concentration of 10 uM in the well. Final DMSO concentration was kept at or below 0.25%. The cell plate was returned to the incubator at 37° C. with 5% CO2 for an additional 24 hours. The K562 cell line was cultured in IMDM with 10% FBS. For K562, cells were diluted with full growth media and plated in either a 96-well plate (50,000 cells in 50 uL media per well) or a 384-well plate (8,000-40,000 cells in 45 uL media per well). An 11-point 3-fold serial dilution of the compounds were made in DMSO then diluted in media in an intermediate plate. Compound was transferred from the intermediate plate to the cell plate with the top dose at a final concentration of 10 uM in the well. Final DMSO concentration was kept at or below 0.25%. Final volume was 100 uL for 96-well plate and 50 uL for 384-well plate. The cell plate was then placed in an incubator at 37° C. with 5% CO2 for 24 hours. The cells were then gently washed with 50 uL-100 uL cold PBS before proceeding to addition of lysis buffer. 30 uL-50 uL of room temperature lysis buffer with DNAse I (and optionally RNAsin) was added to each well. Cells were shaken/mixed thoroughly at room temperature for 5-10 minutes for lysis to take place and then 3 uL-5 uL of room temperature stop solution was added and wells were shaken/mixed again. After 2-5 minutes, the cell lysate plate was transferred to ice for RT-qPCR reaction setup. The lysates could also be frozen at −80° C. for later use. In some cases, a direct lysis buffer was used. An appropriate volume of 3× lysis buffer (10 mM Tris, 150 mM NaCl, 1.5%-2.5% Igepal and 0.1-1 U/uL RNAsin, pH 7.4) was directly added to either K562 or A673 cells in media and mixed by pipetting 3 times. The plates were then incubated at room temperature with shaking/rocking for 20-50 minutes to allow for lysis to take place. After this time, the cell lysate plate was transferred to ice to set up for the RT-qPCR reactions. The lysates could also be frozen at −80° C. for later use. To set up 10 uL RT-qPCR reactions, cell lysates were transferred to 384-well qPCR plates containing the master mix according to the table below. The plates were sealed, gently vortexed, and spun down before the run. The volumes were adjusted accordingly in some instances where the reaction was carried in 20 uL. The table below summarizes the components of the RT-qPCR reactions: The RT-qPCR reaction was performed using a QuantStudio (ThermoFisher) under the following fast cycling conditions. All samples and standards were analyzed at least in duplicate.

[3] = tested on: SMN2 CJ mRNA; experiment: Gene panel canonical junction qPCR assay, SMN2; conditions: decrease in CJ mRNA levels, gene panel; read-out: SMN2 IC50
Method: as §1

[4] = tested on: Target C CJ mRNA; experiment: Gene panel canonical junction qPCR assay, Target C; conditions: decrease in CJ mRNA levels, gene panel; read-out: Target C IC50
Method: as §1

[5] = decrease in CJ mRNA (50% response), read-out: HTT CJ AC50
[6] = increase in AJ mRNA (50% response), read-out: HTT AJ AC50

Row | Structure (SMILES) | IC50 [2] [µM] | IC50 [3] [nM] | IC50 [4] [nM] | AC50 [1, 5] [µM] | AC50 [1, 6] [µM]
1 | Cn1cc2cc(-n3cnc4cc(N5CCNCC5)ccc4c3=O)ccc2n1 [Compound 153, 3-(2-methyl-2H-indazol-5-yl)-7-(piperazin-1-yl)quinazolin-4(3H)-one] | > 10 | 1000 to 10000 |  | > 10 | > 10
2 | Cc1cn2nc(-c3ccc4c(c3F)CCN(C3CCNCC3)C4=O)cc(C)c2n1 [Compound 188, 6-{2,8-dimethylimidazo[1,2-b]pyridazin-6-yl}-5-fluoro-2-(piperidin-4-yl)-3,4-dihydroisoquinolin-1-one] |  |  |  | 1 to 10 | 1 to 10
3 | Cc1cn2nc(-c3ccc4c(c3)CCN(C3CCNCC3)C4=O)cc(C)c2n1 [Compound 185, 6-[2,8-dimethylimidazo [1,2-b]pyridazin-6-yl]-2-(piperidin-4-yl) -3,4-dihydroisoquinolin-1-one] |  |  |  | 0.1 to 1 | 1 to 10
4 | Cc1cn2nc(-c3ccc4c(=O)n(C5CCNCC5)ncc4c3)cc(C)c2n1 [Compound 186, 6-[2,8-dimethylimidazo[1,2-b]pyridazin-6-yl]-2-(piperidin-4-yl)phthalazin-1-one] |  |  |  | < 0.1 | < 0.1
5 | Cn1cc2cc(-n3cnc4cc(C5=CCNCC5)ccc4c3=O)ccc2n1 [Compound 158, 3-(2-methyl-2H-indazol-5-yl)-7-(1,2,3,6-tetrahydropyridin-4-yl)quinazolin-4(3H)-one] | > 10 | > 10000 |  | > 10 | > 10
6 | CC[C@@H]1C[C@@H](n2ncc3cc(-c4cc(C)c5nc(C)cn5n4)ccc3c2=O)CCN1 [Compound 305, 6-{2,8-dimethylimidazo[1,2-b]pyridazin-6-yl}-2-[(2R,4S)-2-ethylpiperidin-4-yl]phthalazin-1-one] | 0.1 to 1 |  | 100 to 1000 | 0.1 to 1 | 1 to 10
7 | Cc1cn2cc(-c3ccc4c(=O)n(C5CCNCC5)ncc4c3)nc2c(C)n1 [Compound 258] |  |  |  | 1 to 10 | > 10
8 | Cn1cc2cc(-n3cnc4cc(NC5CCNCC5)ccc4c3=O)ccc2n1 [Compound 162] | > 10 | > 10000 |  | > 10 | > 10
9 | CN1CC=C(c2ccc3c(=O)n(-c4ccc5nn(C)cc5c4)cnc3c2)CC1 [Compound 159, 7-(1-methyl-1,2,3,6-tetrahydropyridin-4-yl)-3-(2-methyl-2H-indazol-5-yl)quinazolin-4(3H)-one] | > 10 | > 10000 |  | > 10 | > 10

Continued, in another order:

Row | IC50 [2] [µM] | IC50 [3] [nM] | IC50 [4] [nM] | Structure (SMILES) | AC50 [1, 5] [µM] | AC50 [1, 6] [µM]
10 | 1 to 10 | 100 to 1000 |  | Cc1cc(-c2ccc3c(=O)n(C4CCN(C)CC4)cnc3c2)cc2cn(C)nc12 [Compound 156] | 1 to 10 | 1 to 10
11 | > 10 |  | > 10000 | Cc1cn2nc(-c3ccc4c(=O)n(C5CCOCC5)ncc4c3)cc(C)c2n1 [Compound 275] |  | 
12 | > 10 | 100 to 1000 |  | Cc1cc(-c2ccc3nc(N4CCN(C)CC4)[nH]c(=O)c3c2)cc2cn(C)nc12 [Compound 165, 6-(2,7-dimethyl-2H-indazol-5-yl)-2-(4-methylpiperazin-1-yl)quinazolin-4(3H)-one] | > 10 | > 10
13 | < 0.1 |  | 100 to 1000 | Cc1cn2nc(-c3ccc4c(=O)n([C@H]5CCN[C@H](C)C5)ncc4c3)cc(C)c2n1 [Compound 273] | < 0.1 | 0.1 to 1
14 | > 10 | 1000 to 10000 |  | Cc1cc(-c2ccc3c(=O)n(C4CCN(C)CC4)cnc3n2)cc2cn(C)nc12 [Compound 173, 7-(2,7-dimethyl-2H-indazol-5-yl)-3-(1-methylpiperidin-4-yl)pyrido[2,3-d]pyrimidin-4(3H)-one] | > 10 | > 10
15 | > 10 | 1000 to 10000 |  | Cc1cc(-c2ccc3c(=O)n(C4CC(C)(C)NC(C)(C)C4)cnc3c2)cc2cn(C)nc12 [Compound 157, 7-(2,7-dimethyl-2H-indazol-5-yl)-3-(2,2,6,6-tetramethylpiperidin-4-yl)quinazolin-4(3H)-one hydrochloride] | > 10 | > 10
16 | 0.1 to 1 | < 100 |  | Cc1cc(-c2ccc3c(=O)n(C4CCNCC4)cnc3c2)cc2cn(C)nc12 [Compound 174, 7-(2,7-dimethyl-2H-indazol-5-yl)-3-(piperidin-4-yl)quinazolin-4(3H)-one] | 0.1 to 1 | 0.1 to 1
